Here are results for ten compounds from patent EP4775582A1, “MACROCYCLIC COMPOUND AND ANTIBODY-DRUG CONJUGATE THEREOF” (Genfleet Therapeutics (Shanghai) Inc., priority 2023, dated 2025).

pIC50: −log10 of the molar value.

What all share (format): cell-based, human
One experiment relates to AsPC-1 p-ERK. Briefly: Cell p-ERK assay (HTRF), AsPC-1 cells. The settings on record: Homo sapiens, ASPC1, 3 h, read-out: AsPC-1 p-ERK IC50(nM). The protocol: (§1) The cells were digested with trypsin (containing EDTA), collected in their corresponding complete media, and counted. The density of the cell suspensions was adjusted with their corresponding complete media, and 10000 AsPC-1 cells or 20000 NCI-H441 cells per well were seeded into a 96-well cell culture plate, with the volume of the medium in each well being 80 µL. The cell culture plate was incubated in an incubator at 37 °C with 5% CO2 overnight. […] On the day after cell seeding, 20 µL of the 5× compound stock solution was added to each cell culture well. […] In addition to the compound-treated wells described above, cell-containing DMSO control wells were also set. A complete medium containing 0.5% DMSO was added at 20 µL/well. After the mixture was well mixed, the culture plate was incubated in the incubator at 37 °C with 5% CO2 for another 3 h. The medium was then removed from the culture wells, and 50 µL of cell lysis buffer (from Advance ERK phospho-T202/Y204 kit) was added to each well. The mixture was well mixed and incubated for 30 min. Then, 16 µL of the mixture was transferred to a white-bottomed, opaque 96-well assay plate, and separately, 16 µL of cell lysis buffer was added to additional wells (serving as blank wells) in the assay plate. After the transfer was completed, 4 µL of p-ERK HTRF antibody mixture (from Advance ERK phospho-T202/Y204 kit) was added to each well of the assay plate, followed by a 4-hour incubation. […] Using an XLfit software, the IR (%) values were plotted against the logarithm of the compound concentrations, and the dose-response curves were fitted using the four-parameter method to calculate the IC50 values.

A further experiment has as its system AsPC-1 cells. Briefly: 3D cell proliferation assay (CellTiter Glo-3D), AsPC-1. Particulars: Homo sapiens, ASPC1, 120 h, read-out: AsPC-1 AP IC50(nM). The protocol: (§2) The cells were digested with trypsin (containing EDTA), collected in their respective low-serum complete media containing 2% FBS (for MIA Paca-2 cell culture: DMEM + 2% FBS + 0.5% Horse serum + 1% PS), and counted. After the cell density was adjusted as required, 200 MIA PaCa-2 cells, 800 AsPC-1 cells, 800 NCI-H441 cells, or 400 NCI-H1975 cells per well were seeded into a 384-well cell culture plate, with the volume of the medium in each well being 45 µL. The cell culture plate was incubated in an incubator at 37 °C with 5% CO2 overnight. […] On the day after cell seeding, 5 µL of the 10× compound stock solution was added to each cell culture well. […] In addition to the compound-treated wells described above, cell-containing DMSO control wells (with 5 µL of the complete medium containing 1% DMSO added to each well) and cell-free medium control wells (containing 50 µL of the complete medium with 2% FBS) were also set. The culture plate was incubated in an incubator at 37 °C with 5% CO2 for another 5 days, and then 30 µL of CellTiter-Glo working solution was added to each well. The mixture was well mixed, incubated for 30 min, left to stand at room temperature for 30 min, and then transferred to a white-bottomed, opaque 384-well assay plate at 40 µL/well. […] Using an XLfit software, the IR (%) values were plotted against the logarithm of the compound concentrations, and the dose-response curves were fitted using the four-parameter method to calculate the IC50 values.

For a further experiment, the system named is NCI-H441 cells. The experiment can be described thus: 3D cell proliferation assay (CellTiter Glo-3D), NCI-H441. The settings on record: Homo sapiens, 120 h, NCI-H441 cells (KRAS G12V), 2% FBS, 5 days, read-out: H441 AP IC50. The protocol:
as §2

The subject of another experiment is H441 p-ERK. The experiment can be described thus: Cell p-ERK assay (HTRF), NCI-H441 cells. The settings on record: Homo sapiens; NCI-H441 cells (KRAS G12V), 3 h incubation. The protocol:
as §1

With `CCn1c(-c2cc(C#CCN3CCS(=O)(=O)CC3)cnc2[C@H](C)OC)c2c3cc(ccc31)-c1csc(n1)C[C@H](NC(=O)[C@@H]1[C@@H](C)[C@H]1CO)C(=O)N1CCC[C@H](N1)C(=O)OCC(C)(C)C2` (atropisomer, axis not shown; (Ra)) [Compound Z7-1, (1R,2R,3S)-N-((6^3S,4S,Z)-(Ra)-1^2-(5-(3-(1,1-dioxidothiomorpholino)prop-1-yn-1-yl)-2-((S)-1-methoxyethyl)pyridin-3-yl)-1^1-ethyl-10,10-dimethyl-5,7-dioxo-6^1,6^2,6^3,6^4,6^5,6^6-hexahydro-1^1H-8-oxa-2(4,2)-thiazola-1(5,3)-indola-6(1,3)-pyridazinacycloundecaphane-4-yl)-2-(hydroxymethyl)-3-methylcyclopropane-1-carboxamide], the IC50 in the experiment with AsPC-1 p-ERK amounted to 0.51 nM; in the experiment on AsPC-1 cells, 0.52 nM. In addition, the pIC50 was 9.49 with NCI-H441 cells and 9.30 in the experiment with H441 p-ERK.

Consider `CCn1c(-c2cc(C#CCN3CCN(C(=O)CN)CC3)cnc2[C@H](C)OC)c2c3cc(ccc31)-c1csc(n1)[C@@H](OCCN(C)C)[C@H](NC(=O)[C@H]1[C@H](C)[C@@H]1C)C(=O)N1CCC[C@H](N1)C(=O)OCC(C)(C)C2` (atropisomer, axis not shown; (Ra)) [Compound Z165], for which the figures for the IC50 in the experiment on AsPC-1 p-ERK and in the experiment with AsPC-1 cells were 10.3 nM and 10 nM, respectively. Besides, the pIC50 in the experiment on NCI-H441 cells is 7.61; in the experiment with H441 p-ERK, 7.86.

Take `CCn1c(-c2cc(C#CCN3CCC(C#N)(CO)CC3)cnc2[C@H](C)OC)c2c3cc(ccc31)-c1csc(n1)C[C@H](NC(=O)[C@H]1[C@@H]3COC[C@@H]31)C(=O)N1CCC[C@H](N1)C(=O)OCC(C)(C)C2` (atropisomer, axis not shown; (Ra)) [Compound Z30, (1R,5S,6r)-N-((6^3S,4S,Z)-(Ra)-1^2-(5-(3-(4-cyano-4-(hydroxymethyl)piperidin-1-yl)prop-1-yn-1-yl)-2-((S)-1-methoxyethyl)pyridin-3-yl)-11-ethyl-10,10-dimethyl-5,7-dioxo-6^1,6^2,6^3,6^4,6^5,6^6-hexahydro-1^1H-8-oxa-2(4,2)-thiazola-1(5,3)-indola-6(1,3)-pyridazinacycloundecaphane-4-yl)-3-oxabicyclo[3.1.0]hexane-6-carboxamide]: the IC50 in the experiment on AsPC-1 p-ERK and in the experiment on AsPC-1 cells was 0.07 nM in each case. The pIC50 is 9.96 with NCI-H441 cells and 9.82 with H441 p-ERK.

Regarding `COCCn1c(-c2cc(C#CCN3CCC(C#N)(CO)CC3)cnc2[C@H](C)OC)c2c3cc(ccc31)-c1csc(n1)C[C@H](NC(=O)[C@H]1[C@@H]3COC[C@@H]31)C(=O)N1CCC[C@H](N1)C(=O)OCC(C)(C)C2` (atropisomer, axis not shown) [Compound Z28, (1R,5S,6r)-N-((6^3S,4S,Z)-1^2-(5-(3-(4-cyano-4-hydroxymethylpiperidin-1-yl)prop-1-yn-1-yl)-2-((S)-1-methoxyethyl)pyridin-3-yl)-1^1-(methoxyethyl)-10,10-dimethyl-5,7-dioxo-6^1,6^2,6^3,6^4,6^5,6^6-hexahydro-1^1H-8-oxa-2(4,2)-thiazola-1(5,3)-indola-6(1,3)-pyridazinacycloundecaphane-4-yl)-3-oxabicyclo[3.1.0]hexane-6-carboxamide], the figures for the IC50 in the experiment on AsPC-1 p-ERK and in the experiment with AsPC-1 cells were 0.42 nM and 0.37 nM, respectively. Also, the pIC50 was 9.40 in the experiment on NCI-H441 cells and 9.32 in the experiment with H441 p-ERK.

For the compound `CCn1c(-c2cc(C#CCN3CCS(=O)(=O)CC3)cnc2[C@H](C)OC)c2c3cc(ccc31)-c1csc(n1)C[C@H](NC(=O)[C@H]1[C@H](C)[C@@H]1CO)C(=O)N1CCC[C@H](N1)C(=O)OCC(C)(C)C2` (atropisomer, axis not shown; (Ra)) [Compound Z7-2, (1S,2S,3R)-N-((6^3S,4S,Z)-(Ra)-1^2-(5-(3-(1,1-dioxidothiomorpholino)prop-1-yn-1-yl)-2-((S)-1-methoxyethyl)pyridin-3-yl)-1^1-ethyl-10,10-dimethyl-5,7-dioxo-6^1,6^2,6^3,6^4,6^5,6^6-hexahydro-1^1H-8-oxa-2(4,2)-thiazola-1(5,3)-indola-6(1,3)-pyridazinacycloundecaphane-4-yl)-2-(hydroxymethyl)-3-methylcyclopropane-1-carboxamide], the values for the IC50 with AsPC-1 p-ERK and with AsPC-1 cells were 0.42 nM and 0.56 nM, respectively. In addition, the pIC50 is 9.46 with NCI-H441 cells and 9.35 in the experiment on H441 p-ERK.

Regarding `CCn1c(-c2cc(C#CCN3CCS(=O)(=O)CC3)cnc2[C@H](C)OC)c2c3cc(ccc31)-c1csc(n1)C[C@H](Nc1n[nH]c3cc(C)ccc13)C(=O)N1CCC[C@H](N1)C(=O)OCC(C)(C)C2` (atropisomer, axis not shown; (Ra)) [Compound Z171, (6^3S,4S,Z)-(Ra)-1^2-(5-(3-(1,1-dioxidothiomorpholino)prop-1-yn-1-yl)-2-((S)-1-methoxyethyl)pyridin-3-yl)-1^1-ethyl-10,10-dimethyl-4-((6-methyl-1H-indazol-3-yl)amino)-6^1,6^2,6^3,6^4,6^5,6^6-hexahydro-1^1H-8-oxa-2(4,2)-thiazola-1(5,3)-indola-6(1,3)-pyridazinacycloundecaphane-5,7-dione], the results for the IC50 in the experiment with AsPC-1 p-ERK and with AsPC-1 cells were 0.97 nM and 1.36 nM, respectively. Further, the pIC50 was 8.56 in the experiment with NCI-H441 cells and 9.28 in the experiment with H441 p-ERK.

As for `CCn1c(-c2cc(C#CCN3CCS(=O)(=O)CC3)cnc2[C@H](C)OC)c2c3cc(ccc31)-c1csc(n1)C[C@H](NC(=O)[C@@H](NC)C1CCC1)C(=O)N1CCC[C@H](N1)C(=O)OCC(C)(C)C2` (atropisomer, axis not shown; (Ra)) [Compound Z17, (2S)-2-methylamino-2-cyclobutyl-N-((6^3S,4S,Z)-(Ra)-1^2-(5-(3-(1,1-dioxidothiomorpholino)prop-1-yn-1-yl)-2-((S)-1-methoxyethyl)pyridin-3-yl)-1^1-ethyl-10,10-dimethyl-5,7-dioxo-6^1,6^2,6^3,6^4,6^5,6^6-hexahydro-1^1H-8-oxa-2(4,2)-thiazola-1(5,3)-indola-6(1,3)-pyridazinacycloundecaphane-4-yl)acetamide], the IC50 worked out at 0.26 nM with AsPC-1 p-ERK and 0.46 nM in the experiment on AsPC-1 cells. Further, the pIC50 is 9.46 in the experiment on NCI-H441 cells and 9.66 in the experiment on H441 p-ERK.

As for `CCn1c(-c2cc(C#CCN3CCN(C(=O)CNC)CC3)cnc2[C@H](C)OC)c2c3cc(ccc31)-c1csc(n1)C[C@H](NC(=O)[C@H]1[C@@H]3COC[C@@H]31)C(=O)N1CCC[C@H](N1)C(=O)OCC(C)(C)C2` (atropisomer, axis not shown; (Ra)) [Compound Z164], the IC50 is 2.08 nM in the experiment with AsPC-1 p-ERK and 2.59 nM with AsPC-1 cells. Besides, the pIC50 was 8.69 in the experiment on NCI-H441 cells and 8.82 with H441 p-ERK.

Regarding `CCn1c(-c2cc(C#CCN3CCN(C)CC3)cnc2[C@H](C)OC)c2c3cc(ccc31)-c1csc(n1)C[C@H](NC(=O)[C@H]1[C@@H]3COC[C@@H]31)C(=O)N1CCC[C@H](N1)C(=O)OCC(C)(C)C2` (atropisomer, axis not shown; (Ra)) [Compound Z83, (1R,5S,6r)-N-((6^3S,4S,Z)-1^1-ethyl-(Ra)-1^2-(2-((S)-1-methoxyethyl)-5-(3-(4-methylpiperazin-1-yl)prop-1-yn-1-yl)pyridin-3-yl)-10,10-dimethyl-5,7-dioxo-6^1,6^2,6^3,6^4,6^5,6^6-hexahydro-1^1H-8-oxa-2(4,2)-thiazola-1(5,3)-indola-6(1,3)-pyridazinacycloundecaphane-4-yl)-3-oxabicyclo[3.1.0]hexane-6-carboxamide], the results for the IC50 with AsPC-1 p-ERK and with AsPC-1 cells were 0.64 nM and 0.12 nM, respectively. Besides, the pIC50 in the experiment with NCI-H441 cells is 10.05; with H441 p-ERK, 9.38.

Regarding `CCn1c(-c2cc(C#CCN3CCCN(C(=O)CO)CC3)cnc2[C@H](C)OC)c2c3cc(ccc31)-c1csc(n1)C[C@H](NC(=O)[C@H]1[C@@H]3COC[C@@H]31)C(=O)N1CCC[C@H](N1)C(=O)OCC(C)(C)C2` (atropisomer, axis not shown; (Ra)) [Compound Z19], the IC50 in the experiment with AsPC-1 p-ERK worked out at 0.24 nM; in the experiment on AsPC-1 cells it was 0.41 nM. For the same compound, the pIC50 was 9.36 with NCI-H441 cells and 9.89 in the experiment on H441 p-ERK.
